Patent US20070160981A1 (priority 2005, published 2007)
Read-outs that look alike come from different tables or passages of the source.

Key:
SARS-CoV PLP2 [1] = target: T1, SARS-CoV PLP2 (Severe acute respiratory syndrome coronavirus, UniProt P0C6U8)
SARS-CoV PLP2 [2] = target: T1, SARS-CoV PLP2; format: biochemical

NNVFRLKGGAPIKGVTFG [N N V F R L K G G A P I K G V T F G]
Cleavage % 2 hours (SARS-CoV PLP2 [1]): 60.5 ± 0.7% | Cleavage % 12 hours (SARS-CoV PLP2 [1]): 100 ± 0.0%

FRLKGGAPIK [FRLKGG-APIK]
percentage of the cleavage after 2 hours of digestion (SARS-CoV PLP2 [1]): 50% | percentage of the cleavage after 12 hours of digestion (SARS-CoV PLP2 [1]): 100% | Cleavage % 2 hours (SARS-CoV PLP2 [1]; pH 6.8): 49.9 ± 2.6% | Cleavage % 12 hours (SARS-CoV PLP2 [1]; pH 6.8): 100 ± 0.0%

CCN(C(=S)[S-])c1ccccc1.CCN(C(=S)[S-])c1ccccc1.[Zn+2] [N-ethyl-N-phenyldithiocarbamic acid Zn]
inhibition of SARS-CoV PLP2, in words (SARS-CoV PLP2 [2]): effective in inhibiting

FRLKGGAPIKGV
Cleavage % 2 h (SARS-CoV PLP2 [1]): 70.1 ± 7.4% | Cleavage % 2 hours (SARS-CoV PLP2 [1]): 70 ± 7% | Cleavage % 12 h (SARS-CoV PLP2 [1]): 100 ± 0.0% | Cleavage % 12 hours (SARS-CoV PLP2 [1]): 100% | percentage of the cleavage after 2 hours of digestion (SARS-CoV PLP2 [1]): 70% | percentage of the cleavage after 12 hours of digestion (SARS-CoV PLP2 [1]): 100% | Cleavage % 2 hours (SARS-CoV PLP2 [1]; pH 6.8): 70.1 ± 7.4% | Cleavage % 12 hours (SARS-CoV PLP2 [1]; pH 6.8): 100 ± 0.0%

LKGGAPIK
percentage of the cleavage after 2 hours of digestion (SARS-CoV PLP2 [1]): 11% | percentage of the cleavage after 12 hours of digestion (SARS-CoV PLP2 [1]): 45% | Cleavage % 2 hours (SARS-CoV PLP2 [1]; pH 6.8): 11.4 ± 4.3% | Cleavage % 12 hours (SARS-CoV PLP2 [1]; pH 6.8): 44.7 ± 3.5%

VFRLKGGAPIK
Cleavage % 2 hours (SARS-CoV PLP2 [1]; pH 6.8): 52.9 ± 3.5% | Cleavage % 12 hours (SARS-CoV PLP2 [1]; pH 6.8): 100 ± 0.0%

[Zn+2] [Zinc ion]
IC50 (SARS-CoV PLP2 [2]): 1300 nM

[Mn] [Mn]
effects on the activity of SARS-CoV PLP2 (SARS-CoV PLP2 [2]): no effects

CCN1C(=O)C=CC1=O [N-ethylmaleimide]
effective in inhibiting SARS-CoV PLP2 (SARS-CoV PLP2 [2]; 1 mM): effective

[Co] [Co]
effects on the activity of SARS-CoV PLP2 (SARS-CoV PLP2 [2]): no effects

Cn1cnc([N+](=O)[O-])c1Sc1ncnc2nc[nH]c12 [Azathioprine]
found in the screen for inhibitor of SARS-CoV PLP2 (SARS-CoV PLP2 [2]): found

CC(C)C[C@H](NC(=O)[C@@H](NC(=O)N[C@@H](Cc1ccccc1)C(=O)O)[C@@H]1CCN=C(N)N1)C(=O)N[C@H](C=O)Cc1ccccc1 [chymostatin]
effective in inhibiting SARS-CoV PLP2 (SARS-CoV PLP2 [2]; 1 mM): none of them was effective

NVFRLKGGAPIKGVTF [N V F R L K G G A P I K G V T F]
Cleavage % 2 hours (SARS-CoV PLP2 [1]): 63.0 ± 1.4% | Cleavage % 12 hours (SARS-CoV PLP2 [1]): 100 ± 0.0%

O=NN(CCCl)C(=O)NCCCl [Carmustine]
found in the screen for inhibitor of SARS-CoV PLP2 (SARS-CoV PLP2 [2]): found

S=C([S-])N(Cc1ccccc1)Cc1ccccc1.S=C([S-])N(Cc1ccccc1)Cc1ccccc1.[Zn+2] [Dibenzyl dithiocarbamic Zn]
inhibition of SARS-CoV PLP2, in words (SARS-CoV PLP2 [2]): effective in inhibiting

cystatin
effective in inhibiting SARS-CoV PLP2 (SARS-CoV PLP2 [2]): none of them was effective

[Ca] [Ca]
effects on the activity of SARS-CoV PLP2 (SARS-CoV PLP2 [2]): no effects

CC(=O)N[C@@H](CC(C)C)C(=O)N[C@@H](CC(C)C)C(=O)N[C@H](C=O)CCCNC(=N)N [leupeptin]
effective in inhibiting SARS-CoV PLP2 (SARS-CoV PLP2 [2]; 0.1 mM): none of them was effective

CN(C)C(=S)SSC(=S)N(C)C [Thiram]
found in the screen for inhibitor of SARS-CoV PLP2 (SARS-CoV PLP2 [2]): found

[O-]n1ccccc1=S.[O-]n1ccccc1=S.[Zn+2] [hydroxypridine-2-thione Zn]
inhibition of SARS-CoV PLP2, in words (SARS-CoV PLP2 [2]): effective in inhibiting

Nc1nc(S)c2[nH]cnc2n1 [2-amino-6-mercaptopurine]
found in the screen for inhibitor of SARS-CoV PLP2 (SARS-CoV PLP2 [2]): found

O=C([O-])c1ccccc1-c1c2cc(Br)c(=O)cc-2oc2[c]([Hg+])c([O-])c(Br)cc12.[Na+].[Na+].[OH-] [Merbromin]
found in the screen for inhibitor of SARS-CoV PLP2 (SARS-CoV PLP2 [2]): found

[Ni] [Ni]
effects on the activity of SARS-CoV PLP2 (SARS-CoV PLP2 [2]): no effects

Sc1ncnc2nc[nH]c12 [6-mercaptopurine]
found in the screen for inhibitor of SARS-CoV PLP2 (SARS-CoV PLP2 [2]): found

VFRLKGGAPIKGVT [V F R L K G G A P I K G V T]
Cleavage % 2 hours (SARS-CoV PLP2 [1]; pH 6.8): 67.6 ± 9.0% | Cleavage % 12 hours (SARS-CoV PLP2 [1]; pH 6.8): 100 ± 0.0%

FRLKGGAPI [FRLKGG-API]
percentage of the cleavage after 2 hours of digestion (SARS-CoV PLP2 [1]): 36% | percentage of the cleavage after 12 hours of digestion (SARS-CoV PLP2 [1]): 85% | Cleavage % 2 hours (SARS-CoV PLP2 [1]; pH 6.8): 36.2 ± 6.4% | Cleavage % 12 hours (SARS-CoV PLP2 [1]; pH 6.8): 85.1 ± 4.9%

ISLKGGKIVSTC [Gly2740-Lys2741]
Cleavage % 2 hours (SARS-CoV PLP2 [1]): 7 ± 1% | Cleavage % 12 hours (SARS-CoV PLP2 [1]): 29 ± 4% | percentage of the cleavage after 2 hours of digestion (SARS-CoV PLP2 [1]): 7% | percentage of the cleavage after 12 hours of digestion (SARS-CoV PLP2 [1]): 29%

[Mg] [Mg]
effects on the activity of SARS-CoV PLP2 (SARS-CoV PLP2 [2]): no effects

RLKGGAPIKG [RLKGG-APIKG]
percentage of the cleavage after 12 hours of digestion (SARS-CoV PLP2 [1]): 56% | Cleavage % 2 hours (SARS-CoV PLP2 [1]; pH 6.8): 14.8 ± 4.1% | Cleavage % 12 hours (SARS-CoV PLP2 [1]; pH 6.8): 56.4 ± 5.6%
